Data reported in patent publication US20250152585A1, “PHARMACEUTICAL COMPOUND” (Duke Street Bio Limited, priority 2022, published 2025).
pIC50, pKd: −log10 of the molar value. Where two headings read alike, the source gives them in different places.

Columns and labels:
[1] = molecular target: T1, full length N-terminally FLAG-tagged PARP1 (Homo sapiens, UniProt P09874); assay: PARP1 probe displacement HTRF assay; conditions: probe displacement HTRF; for Selectivity: PARP1 over PARP2, ratio Kd (PARP2)/Kd (PARP1); for pKd: binned Kd
T1 sequence (P09874 whole entry): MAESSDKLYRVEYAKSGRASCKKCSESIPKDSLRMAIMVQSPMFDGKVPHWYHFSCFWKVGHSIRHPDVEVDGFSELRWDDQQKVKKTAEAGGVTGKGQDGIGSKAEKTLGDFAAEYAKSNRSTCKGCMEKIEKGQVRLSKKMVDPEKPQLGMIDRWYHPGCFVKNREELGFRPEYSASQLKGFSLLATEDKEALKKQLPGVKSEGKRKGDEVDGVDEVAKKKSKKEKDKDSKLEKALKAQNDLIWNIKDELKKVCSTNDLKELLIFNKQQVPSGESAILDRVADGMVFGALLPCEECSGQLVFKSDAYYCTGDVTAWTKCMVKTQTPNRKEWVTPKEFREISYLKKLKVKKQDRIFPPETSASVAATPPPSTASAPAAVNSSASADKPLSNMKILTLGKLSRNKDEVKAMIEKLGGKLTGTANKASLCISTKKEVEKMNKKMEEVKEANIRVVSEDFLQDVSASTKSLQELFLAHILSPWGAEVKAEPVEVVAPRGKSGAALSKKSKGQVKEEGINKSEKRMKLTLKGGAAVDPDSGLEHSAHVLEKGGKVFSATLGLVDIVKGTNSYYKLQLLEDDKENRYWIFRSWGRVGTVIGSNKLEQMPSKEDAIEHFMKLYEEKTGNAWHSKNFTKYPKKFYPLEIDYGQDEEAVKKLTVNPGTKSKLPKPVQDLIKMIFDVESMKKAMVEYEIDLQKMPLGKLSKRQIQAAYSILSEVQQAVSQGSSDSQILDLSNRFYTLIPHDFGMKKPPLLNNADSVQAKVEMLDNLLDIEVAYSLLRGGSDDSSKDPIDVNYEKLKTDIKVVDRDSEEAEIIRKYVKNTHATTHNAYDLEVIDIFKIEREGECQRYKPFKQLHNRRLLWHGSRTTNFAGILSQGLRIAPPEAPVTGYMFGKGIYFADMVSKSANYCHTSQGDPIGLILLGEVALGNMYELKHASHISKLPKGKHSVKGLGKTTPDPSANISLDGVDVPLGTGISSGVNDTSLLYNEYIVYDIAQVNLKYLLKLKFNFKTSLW

[2] = molecular target: T1, full length N-terminally FLAG-tagged PARP1; assay: PARP1 biochemical DELFIA assay (auto-PARylation); parameters: recombinant full length human N-terminally FLAG-tagged PARP1; conditions: binned IC50, biochemical auto-PARylation assay
[3] = molecular target: T2, N-terminally FLAG-tagged PARP2 (amino acids 1-583) (Homo sapiens, UniProt Q9UGN5); assay: PARP2 probe displacement HTRF assay; format: binding; conditions: binned Kd, probe displacement HTRF
T2 construct: N-terminally FLAG-tagged PARP2 (amino acids 1-583)
T2 sequence (Q9UGN5 whole entry, the tested form may be a part): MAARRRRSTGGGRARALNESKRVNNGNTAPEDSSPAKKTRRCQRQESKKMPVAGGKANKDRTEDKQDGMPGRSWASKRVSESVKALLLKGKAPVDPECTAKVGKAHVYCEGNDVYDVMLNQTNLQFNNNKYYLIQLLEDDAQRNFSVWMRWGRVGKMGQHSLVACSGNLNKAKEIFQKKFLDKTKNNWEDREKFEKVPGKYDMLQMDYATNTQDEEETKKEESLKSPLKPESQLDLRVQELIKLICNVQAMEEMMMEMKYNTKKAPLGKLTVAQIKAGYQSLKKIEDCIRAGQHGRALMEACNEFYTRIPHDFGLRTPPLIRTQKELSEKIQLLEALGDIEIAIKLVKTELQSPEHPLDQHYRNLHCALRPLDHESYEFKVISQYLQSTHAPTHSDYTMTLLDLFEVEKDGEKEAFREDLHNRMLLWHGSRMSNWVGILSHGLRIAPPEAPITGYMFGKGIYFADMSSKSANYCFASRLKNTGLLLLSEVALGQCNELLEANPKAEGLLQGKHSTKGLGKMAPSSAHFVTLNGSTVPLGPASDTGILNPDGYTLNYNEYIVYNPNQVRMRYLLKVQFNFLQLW
Experimental: Data analysis was performed identical as for PARP1.

SMILES | Selectivity [1] | pKd ([1]; read-out: PARP1 HTRF) | pIC50 [2] | pKd [3] | pKd ([1]; PARP1 HTRF)
CNC(=O)c1ccc(N2CCC(N3CCC(c4nc5c(c(=O)[nH]4)CCC5)C3)CC2)cn1 (single isomer, unassigned) [Compound 283a] | + (+ indicates a value of 10 to less than 50) | 6.00 to 7.00 | 6.00 to 7.00 | < 5.00 | 
CNC(=O)c1ccc(N2CCC(N3CCC(c4nc5c(c(=O)[nH]4)CCC5)C3)CC2)cn1 (single isomer, unassigned) [Compound 283b] | +++ (+++ indicate a value of at least 100) | > 8.00 | > 8.00 | 5.00 to 6.00 | 
CCc1ccc(C2CCN(C3CCN(c4ccc(C(=O)NCC(F)(F)F)nc4F)CC3)C2)[nH]c1=O (single isomer, unassigned) [Compound 285b] | +++ (+++ indicate a value of at least 100) | > 8.00 | > 8.00 | < 5.00 | 
CNC(=O)c1ccc(N2CCC(N3CCC(c4cnc(CC(F)(F)F)c(=O)[nH]4)C3)CC2)cn1 (single isomer, unassigned) [Compound 287a] | ++ (++ indicates a value of 50 to less than 100) | 7.00 to 8.00 | 7.00 to 8.00 | < 5.00 | 
CNC(=O)c1ccc(N2CCC(N3CCC(c4cnc(CC(F)(F)F)c(=O)[nH]4)C3)CC2)cn1 (single isomer, unassigned) [Compound 287b] | − (− indicates a value of less than 10) | 5.00 to 6.00 | 5.00 to 6.00 | < 5.00 | 
CC(=O)Nc1ccc(N2CCC(N3CCC(c4cc5ccccc5c(=O)[nH]4)C3)CC2)cc1 (single isomer, unassigned) [Compound 289a] | − (− indicates a value of less than 10) | 6.00 to 7.00 | 6.00 to 7.00 | 5.00 to 6.00 | 
CC(=O)Nc1ccc(N2CCC(N3CCC(c4cc5ccccc5c(=O)[nH]4)C3)CC2)cc1 (single isomer, unassigned) [Compound 289b] | + (+ indicates a value of 10 to less than 50) | 7.00 to 8.00 | > 8.00 | 6.00 to 7.00 | 
CS(=O)(=O)Nc1ccc(N2CCC(N3CCC(c4nc5ccccc5c(=O)[nH]4)C3)CC2)cn1 (single isomer, unassigned) [Compound 291a] | + (+ indicates a value of 10 to less than 50) | 6.00 to 7.00 | 7.00 to 8.00 | 5.00 to 6.00 | 
CS(=O)(=O)Nc1ccc(N2CCC(N3CCC(c4nc5ccccc5c(=O)[nH]4)C3)CC2)cn1 (single isomer, unassigned) [Compound 291b] | − (− indicates a value of less than 10) | 6.00 to 7.00 | 6.00 to 7.00 | 5.00 to 6.00 | 
CNC(=O)c1ccc(N2CCC(N3CCC(c4nc5c(C(F)(F)F)c[nH]c5c(=O)[nH]4)C3)CC2)cn1 (single isomer, unassigned) [Compound 293a] | − (− indicates a value of less than 10) | < 5.00 | < 5.00 | < 5.00 | 
CCc1ccc(C2CCN(C3CCN(c4cnc(C(=O)NC)cc4C(F)(F)F)CC3)C2)[nH]c1=O (single isomer, unassigned) [Compound 298a] | − (− indicates a value of less than 10) | 5.00 to 6.00 | 5.00 to 6.00 | < 5.00 | 
CCc1ccc(C2CCN(C3CCN(c4cnc(C(=O)NC)cc4C(F)(F)F)CC3)C2)[nH]c1=O (single isomer, unassigned) [Compound 298b] | +++ (+++ indicate a value of at least 100) | 7.00 to 8.00 | 7.00 to 8.00 | 5.00 to 6.00 | 
CC(=O)Nc1ccc(N2CCC(N3CCC(c4cc5ccccc5c(=O)[nH]4)C3)CC2)cn1 (single isomer, unassigned) [Compound 306a] | + (+ indicates a value of 10 to less than 50) | 6.00 to 7.00 | 6.00 to 7.00 | 5.00 to 6.00 | 
CC(=O)Nc1ccc(N2CCC(N3CCC(c4cc5ccccc5c(=O)[nH]4)C3)CC2)cn1 (single isomer, unassigned) [Compound 306b] | +++ (+++ indicate a value of at least 100) | > 8.00 | > 8.00 | 6.00 to 7.00 | 
CNC(=O)c1cc(C(F)(F)F)c(N2CCC(N3CCC(c4cc5cccc(F)c5c(=O)[nH]4)C3)CC2)cn1 (single isomer, unassigned) [Compound 308a] | + (+ indicates a value of 10 to less than 50) | 6.00 to 7.00 | 6.00 to 7.00 | 5.00 to 6.00 | 
CNC(=O)c1cc(C(F)(F)F)c(N2CCC(N3CCC(c4cc5cccc(F)c5c(=O)[nH]4)C3)CC2)cn1 (single isomer, unassigned) [Compound 308b] | +++ (+++ indicate a value of at least 100) | > 8.00 | > 8.00 | 6.00 to 7.00 | 

SMILES | Selectivity [1] | pKd ([1]; read-out: PARP1 HTRF) | pIC50 [2] | pKd [3] | pKd ([1]; PARP1 HTRF)
CNC(=O)c1ccc(N2CCC(N3CCC(c4cc5c(c(=O)[nH]4)CCC(=O)N5)C3)CC2)cn1 (single isomer, unassigned) [Compound 309a, 5-(4-(3-(2,5-dioxo-1,2,3,4,5,6-hexahydro-1,6-naphthyridin-7-yl)pyrrolidin-1-yl)piperidin-1-yl)-N-methylpicolinamide] | +++ (+++ indicate a value of at least 100) |  | > 8.00 | < 5.00 | > 8.00
CNC(=O)c1ccc(N2CCC(N3CCC(c4cc5c(c(=O)[nH]4)CCC(=O)N5)C3)CC2)cn1 (single isomer, unassigned) [Compound 309b, 5-(4-(3-(2,5-dioxo-1,2,3,4,5,6-hexahydro-1,6-naphthyridin-7-yl)pyrrolidin-1-yl)piperidin-1-yl)-N-methylpicolinamide] | ++ (++ indicates a value of 50 to less than 100) |  | 7.00 to 8.00 | < 5.00 | 
CNC(=O)c1ccc(N2CCC(N3CCC(c4ccc(CC5CC5)c(=O)[nH]4)C3)CC2)c(F)n1 (single isomer, unassigned) [Compound 313a] | +++ (+++ indicate a value of at least 100) | 7.00 to 8.00 | 7.00 to 8.00 | < 5.00 | 
N#Cc1ccc(N2CCC(N3CCC(c4cc5cccc(F)c5c(=O)[nH]4)C3)CC2)cc1 (single isomer, unassigned) [Compound 314a] | + (+ indicates a value of 10 to less than 50) | > 8.00 | > 8.00 | 6.00 to 7.00 | 
CNC(=O)c1ccc(N2CCC(N3CCC(c4cc5ncc(F)cc5c(=O)[nH]4)C3)CC2)cn1 (single isomer, unassigned) [Compound 315a] | +++ (+++ indicate a value of at least 100) | > 8.00 | > 8.00 | 6.00 to 7.00 | 
CNC(=O)c1ccc(N2CCC(N3CCC(c4cc5ncc(F)cc5c(=O)[nH]4)C3)CC2)cn1 (single isomer, unassigned) [Compound 315b] | +++ (+++ indicate a value of at least 100) | > 8.00 | > 8.00 | 6.00 to 7.00 | 
N#Cc1ccc(N2CCC(N3CCC(c4cc5cccc(F)c5c(=O)[nH]4)C3)CC2)cn1 (single isomer, unassigned) [Compound 316b] | + (+ indicates a value of 10 to less than 50) | 7.00 to 8.00 | 7.00 to 8.00 | 6.00 to 7.00 | 
CCc1ccc(C2CCN(C3CCN(c4ccc(C#N)cc4)CC3)C2)[nH]c1=O (single isomer, unassigned) [Compound 317a] | − (− indicates a value of less than 10) | 6.00 to 7.00 | 7.00 to 8.00 | 5.00 to 6.00 | 
CCc1ccc(C2CCN(C3CCN(c4ccc(C#N)cc4)CC3)C2)[nH]c1=O (single isomer, unassigned) [Compound 317b] | +++ (+++ indicate a value of at least 100) | > 8.00 | > 8.00 | 6.00 to 7.00 | 
CCc1ccc(C2CCN(C3CCN(c4ccc(C(=O)NCCF)nc4F)CC3)C2)[nH]c1=O (single isomer, unassigned) [Compound 322a] | +++ (+++ indicate a value of at least 100) | > 8.00 | > 8.00 | < 5.00 | 
CNC(=O)c1ccc(N2CCC(N3CCC(c4cc5ncc(F)cc5c(=O)[nH]4)C3)CC2)c(F)n1 (single isomer, unassigned) [Compound 324a] | +++ (+++ indicate a value of at least 100) | > 8.00 | > 8.00 | < 5.00 | 
CNC(=O)c1ccc(N2CCC(N3CCC(c4cc5ncc(F)cc5c(=O)[nH]4)C3)CC2)c(F)n1 (single isomer, unassigned) [Compound 324b] | +++ (+++ indicate a value of at least 100) | > 8.00 | > 8.00 | 6.00 to 7.00 | 
CCc1ccc(C2CCN(C3CCN(c4ccc(C#N)nc4)CC3)C2)[nH]c1=O (single isomer, unassigned) [Compound 326a] | + (+ indicates a value of 10 to less than 50) | 6.00 to 7.00 | 6.00 to 7.00 | 5.00 to 6.00 | 
CCc1ccc(C2CCN(C3CCN(c4ccc(C#N)nc4)CC3)C2)[nH]c1=O (single isomer, unassigned) [Compound 326b] | +++ (+++ indicate a value of at least 100) | > 8.00 | 7.00 to 8.00 | 5.00 to 6.00 | 
CNC(=O)c1ccc(N2CCC(N3CCCC(O)(c4nc5ccccc5c(=O)[nH]4)C3)CC2)cn1 (single isomer, unassigned) [Compound 327a] | + (+ indicates a value of 10 to less than 50) | 6.00 to 7.00 | 6.00 to 7.00 | < 5.00 | 
CNC(=O)c1ccc(N2CCC(N3CCCC(O)(c4nc5ccccc5c(=O)[nH]4)C3)CC2)cn1 (single isomer, unassigned) [Compound 327b] | − (− indicates a value of less than 10) | 6.00 to 7.00 | 6.00 to 7.00 | < 5.00 | 
